The values below come from US10709132B2, “Microbicidal composition” (DDP SPECIALTY ELECTRONIC MATERIALAS US, INC., priority 2015, dated 2020).

Molecules are shown by their SMILES. Read-outs that look alike come from different tables or passages of the source.

Holding throughout (format): cell-based
Assay [1] deals with Aspergillus brasiliensis ATCC #16404. As to the kind of experiment: Synergy test by MIC in 96 well microtiter plates, mold. To be noted: ATCC16404, 168 h, A. brasiliensis, contact time 7 days, 25° C., potato dextrose broth, read-out: MIC of compound acting alone (CA / CB). As to the method: (§1) DMO with Pine oil was evaluated for synergy by determining the synergy index (S.I.) of the combination. Incubation temperature for bacteria was 30° C. and for fungi was 25° C. Synergy index was calculated based on minimum inhibitory concentrations (MIC) of two antimicrobial compounds (CA and CB) alone and in combinations (Ca and Cb). The test organisms were gram negative bacteria (Pseudomonas aeruginosa ATCC #15442), gram positive bacteria (Staphylococcus aureus ATCC #6538), and yeast (Candida albicans ATCC #10231) and mold (Aspergillus brasiliensis ATCC #16404). The test was carried out in 96 well microtiter plates. Contact time for the bacteria and yeast was 24 and 48 hours, and contact time for mold was 3 and 7 days. […] SI is calculated as follows: Ca/CA+Cb/CB=Synergy Index (“SI”) Wherein: • CA=concentration of compound A in ppm, acting alone, which produced an end point (MIC of Compound A). • Ca=concentration of compound A in ppm, in the mixture, which produced an end point. • CB=concentration of compound B in ppm, acting alone, which produced an end point (MIC of Compound B). • Cb=concentration of compound B in ppm, in the mixture, which produced an end point. When the sum of Ca/CA and Cb/CB is greater than one, antagonism is indicated. […] [table] [table] [table]

Assay [2] concerns Candida albicans ATCC #10231. As to the kind of experiment: Synergy test by MIC in 96 well microtiter plates, yeast. Conditions: ATCC10231, C. albicans, 25° C., potato dextrose broth, read-out: MIC of compound acting alone (CA / CB). The method, then: as §1
The subject of assay [3] is Staphylococcus aureus ATCC #6538. As to the kind of experiment: Synergy test by MIC in 96 well microtiter plates, gram positive bacteria. Conditions: ATCC6538, S. aureus, 30° C., 10% tryptic soy broth, read-out: MIC of compound acting alone (CA / CB). The method, then:
as §1

`CC1(C)COCN1` [DMO, 4,4-dimethyloxazolidine]: the MIC in assay [1] amounted to 500 µg/mL; in assay [2] (contact time 24 hrs), 1000 µg/mL; in assay [2] (contact time 48 hrs), 1000 µg/mL; in assay [3] (contact time 24 hrs), 75 µg/mL; in assay [3] (contact time 48 hrs), 75 µg/mL.
